Source: ChEMBL document CHEMBL1136188, “1H-Pyrazolo-[3,4-c]cyclophepta[1,2-c]thiophenes: a unique structural class of dopamine D4 selective ligands” (Bioorg Med Chem Lett, 2003)

Experiments:
D(2) dopamine receptor = D(2) dopamine receptor (Homo sapiens, UniProt P14416); experiment: Binding affinity towards cloned human Dopamine receptor D2 was determined
D(4) dopamine receptor [1] = molecular target: T1, D(4) dopamine receptor (Homo sapiens, UniProt P21917); experiment: Binding affinity to recombinant human dopamine receptor D4
T1 sequence (P21917 whole entry): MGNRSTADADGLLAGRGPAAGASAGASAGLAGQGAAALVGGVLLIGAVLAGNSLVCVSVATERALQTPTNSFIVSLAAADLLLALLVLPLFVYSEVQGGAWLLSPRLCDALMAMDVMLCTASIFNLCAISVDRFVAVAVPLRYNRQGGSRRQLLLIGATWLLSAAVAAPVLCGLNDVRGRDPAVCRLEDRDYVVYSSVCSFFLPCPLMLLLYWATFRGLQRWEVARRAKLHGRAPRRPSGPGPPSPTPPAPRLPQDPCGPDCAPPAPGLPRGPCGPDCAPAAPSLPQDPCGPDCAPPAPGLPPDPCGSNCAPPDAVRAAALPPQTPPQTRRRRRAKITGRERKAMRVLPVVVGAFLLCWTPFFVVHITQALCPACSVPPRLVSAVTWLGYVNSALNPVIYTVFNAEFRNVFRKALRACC

[2] = molecular target: T2, 5-hydroxytryptamine receptor 1A (Homo sapiens, UniProt P08908); experiment: Binding affinity towards cloned human 5-hydroxytryptamine 1A receptor was determined
T2 sequence (P08908 whole entry): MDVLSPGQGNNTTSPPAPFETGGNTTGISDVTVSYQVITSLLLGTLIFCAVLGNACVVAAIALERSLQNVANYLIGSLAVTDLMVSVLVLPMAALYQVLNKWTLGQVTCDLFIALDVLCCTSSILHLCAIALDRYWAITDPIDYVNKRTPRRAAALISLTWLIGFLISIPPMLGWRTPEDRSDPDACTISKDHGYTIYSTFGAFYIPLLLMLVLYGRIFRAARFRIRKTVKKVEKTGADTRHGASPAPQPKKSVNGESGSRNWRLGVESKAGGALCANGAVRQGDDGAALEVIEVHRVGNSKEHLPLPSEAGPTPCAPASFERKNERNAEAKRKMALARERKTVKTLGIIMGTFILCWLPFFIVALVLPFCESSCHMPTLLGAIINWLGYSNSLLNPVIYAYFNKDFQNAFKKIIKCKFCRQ

[3] = molecular target: Serotonin 2 (5-HT2) receptor (Homo sapiens, UniProt P41595+P28223+P28335); experiment: Binding affinity towards cloned human 5-hydroxytryptamine 2 receptor was determined; assay type: protein assay
[4] = Half life in human microsomes; assay type: ADME, Microsome
[5] = mLogP was determined; assay type: physicochemical; conditions: octanol/water; read-out: mLog P
[6] = molecular target: T3, Adrenergic receptor alpha-1 (Homo sapiens, UniProt P35348+P25100+P35368); experiment: Binding affinity towards cloned human Alpha-1 adrenergic receptor was determined; assay type: protein assay
T3 sequence (P35348 whole entry): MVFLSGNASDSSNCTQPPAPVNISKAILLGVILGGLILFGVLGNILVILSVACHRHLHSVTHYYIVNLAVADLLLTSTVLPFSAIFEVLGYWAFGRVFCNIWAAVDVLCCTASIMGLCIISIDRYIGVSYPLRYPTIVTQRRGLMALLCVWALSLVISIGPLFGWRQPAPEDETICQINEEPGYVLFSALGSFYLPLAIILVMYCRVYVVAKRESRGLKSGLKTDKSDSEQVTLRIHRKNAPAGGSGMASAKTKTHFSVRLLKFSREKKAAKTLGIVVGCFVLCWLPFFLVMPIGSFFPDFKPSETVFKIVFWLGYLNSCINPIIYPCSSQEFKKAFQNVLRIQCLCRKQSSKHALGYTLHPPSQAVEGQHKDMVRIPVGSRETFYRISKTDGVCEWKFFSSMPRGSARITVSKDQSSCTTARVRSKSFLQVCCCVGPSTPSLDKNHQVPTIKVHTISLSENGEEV
T3 sequence (P25100 whole entry): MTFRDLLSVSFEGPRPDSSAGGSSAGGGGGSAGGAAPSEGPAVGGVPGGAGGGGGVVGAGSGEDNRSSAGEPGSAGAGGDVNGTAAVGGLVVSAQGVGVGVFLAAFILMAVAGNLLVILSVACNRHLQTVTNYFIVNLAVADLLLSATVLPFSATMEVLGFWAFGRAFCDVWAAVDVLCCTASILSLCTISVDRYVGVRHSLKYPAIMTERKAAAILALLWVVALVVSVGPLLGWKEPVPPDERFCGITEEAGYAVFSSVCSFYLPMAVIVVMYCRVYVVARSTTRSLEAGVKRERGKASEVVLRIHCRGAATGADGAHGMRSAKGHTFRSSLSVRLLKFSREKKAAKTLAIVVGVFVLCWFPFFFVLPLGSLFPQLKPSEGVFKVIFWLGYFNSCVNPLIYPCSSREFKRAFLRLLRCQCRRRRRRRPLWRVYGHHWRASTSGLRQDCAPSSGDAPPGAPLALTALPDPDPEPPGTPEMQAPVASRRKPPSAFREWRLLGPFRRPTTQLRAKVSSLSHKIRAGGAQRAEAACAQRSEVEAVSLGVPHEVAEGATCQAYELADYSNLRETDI
T3 sequence (P35368 whole entry): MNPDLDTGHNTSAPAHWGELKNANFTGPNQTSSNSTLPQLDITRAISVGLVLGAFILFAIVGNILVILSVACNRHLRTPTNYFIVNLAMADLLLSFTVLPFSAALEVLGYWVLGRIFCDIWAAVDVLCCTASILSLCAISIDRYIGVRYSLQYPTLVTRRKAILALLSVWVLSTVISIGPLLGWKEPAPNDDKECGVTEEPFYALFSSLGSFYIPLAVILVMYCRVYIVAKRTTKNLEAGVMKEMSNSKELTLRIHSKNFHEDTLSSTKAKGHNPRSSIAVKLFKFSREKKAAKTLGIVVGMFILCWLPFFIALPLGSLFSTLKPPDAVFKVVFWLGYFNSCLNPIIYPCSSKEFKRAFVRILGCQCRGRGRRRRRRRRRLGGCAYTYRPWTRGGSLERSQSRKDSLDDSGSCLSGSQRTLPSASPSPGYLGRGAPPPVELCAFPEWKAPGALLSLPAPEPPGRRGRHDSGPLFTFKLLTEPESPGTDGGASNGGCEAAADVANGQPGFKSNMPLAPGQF

[7] = molecular target: T4, Adrenergic receptor alpha-2 (Homo sapiens, UniProt P08913+P18825+P18089); experiment: Binding affinity towards cloned human Alpha-2 adrenergic receptor was determined; assay type: protein assay
T4 sequence (P08913 whole entry): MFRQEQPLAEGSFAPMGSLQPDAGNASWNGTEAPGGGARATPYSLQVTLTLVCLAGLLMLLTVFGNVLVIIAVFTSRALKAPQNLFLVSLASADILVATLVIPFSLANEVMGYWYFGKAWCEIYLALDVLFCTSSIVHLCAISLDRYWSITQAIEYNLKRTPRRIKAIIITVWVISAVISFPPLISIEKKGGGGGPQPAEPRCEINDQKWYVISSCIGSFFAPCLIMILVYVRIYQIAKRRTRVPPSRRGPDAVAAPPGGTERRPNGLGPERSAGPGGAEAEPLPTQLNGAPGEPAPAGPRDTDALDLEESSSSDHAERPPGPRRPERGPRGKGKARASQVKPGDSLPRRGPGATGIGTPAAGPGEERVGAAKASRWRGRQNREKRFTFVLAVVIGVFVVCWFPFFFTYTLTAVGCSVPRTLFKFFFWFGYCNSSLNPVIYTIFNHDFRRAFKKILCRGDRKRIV
T4 sequence (P18825 whole entry): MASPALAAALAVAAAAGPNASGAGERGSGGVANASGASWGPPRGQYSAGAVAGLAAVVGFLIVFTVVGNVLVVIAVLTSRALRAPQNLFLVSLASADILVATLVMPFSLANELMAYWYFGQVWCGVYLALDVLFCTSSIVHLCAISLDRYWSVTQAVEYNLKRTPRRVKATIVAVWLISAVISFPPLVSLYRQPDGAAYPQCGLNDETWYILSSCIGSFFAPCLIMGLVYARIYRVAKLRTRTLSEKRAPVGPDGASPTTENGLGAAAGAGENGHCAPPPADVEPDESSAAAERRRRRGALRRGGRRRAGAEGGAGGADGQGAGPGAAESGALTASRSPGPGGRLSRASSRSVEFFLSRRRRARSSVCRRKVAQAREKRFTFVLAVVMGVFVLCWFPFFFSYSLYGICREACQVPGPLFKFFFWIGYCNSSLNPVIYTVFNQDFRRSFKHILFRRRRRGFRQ
T4 sequence (P18089 whole entry): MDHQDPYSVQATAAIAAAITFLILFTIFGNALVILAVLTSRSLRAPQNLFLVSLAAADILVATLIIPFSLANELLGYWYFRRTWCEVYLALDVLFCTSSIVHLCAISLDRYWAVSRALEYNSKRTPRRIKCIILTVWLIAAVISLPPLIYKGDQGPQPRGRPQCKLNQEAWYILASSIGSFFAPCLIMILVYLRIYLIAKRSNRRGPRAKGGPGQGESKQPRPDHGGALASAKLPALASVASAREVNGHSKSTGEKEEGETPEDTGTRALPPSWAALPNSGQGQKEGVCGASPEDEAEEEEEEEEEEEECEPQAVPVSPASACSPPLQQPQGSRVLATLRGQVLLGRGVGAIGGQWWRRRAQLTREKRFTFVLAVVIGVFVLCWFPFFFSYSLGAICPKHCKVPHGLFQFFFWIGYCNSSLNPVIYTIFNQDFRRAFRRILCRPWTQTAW

D(1A) dopamine receptor = D(1A) dopamine receptor (Homo sapiens, UniProt P21728); experiment: Binding affinity towards Dopamine receptor D1 was determined
D(3) dopamine receptor = D(3) dopamine receptor (Homo sapiens, UniProt P35462); experiment: Binding affinity towards cloned human Dopamine receptor D3 was determined
D(1B) dopamine receptor = D(1B) dopamine receptor (Homo sapiens, UniProt P21918); experiment: Binding affinity towards cloned human Dopamine receptor D5 was determined
D(4) dopamine receptor [8] = molecular target: T1, D(4) dopamine receptor; experiment: Antagonistic activity against human Dopamine receptor D4.2 using [35S]GTP-gamma-S binding assay
[9] = molecular target: T5, D(4) dopamine receptor (Homo sapiens) (UniProt P21917); experiment: Association constant towards cloned human dopamine D4 receptor was determined
T5 sequence (whole entry): T1 sequence (P21917 whole entry)

Chain of D(2) dopamine receptor (P14416 whole entry): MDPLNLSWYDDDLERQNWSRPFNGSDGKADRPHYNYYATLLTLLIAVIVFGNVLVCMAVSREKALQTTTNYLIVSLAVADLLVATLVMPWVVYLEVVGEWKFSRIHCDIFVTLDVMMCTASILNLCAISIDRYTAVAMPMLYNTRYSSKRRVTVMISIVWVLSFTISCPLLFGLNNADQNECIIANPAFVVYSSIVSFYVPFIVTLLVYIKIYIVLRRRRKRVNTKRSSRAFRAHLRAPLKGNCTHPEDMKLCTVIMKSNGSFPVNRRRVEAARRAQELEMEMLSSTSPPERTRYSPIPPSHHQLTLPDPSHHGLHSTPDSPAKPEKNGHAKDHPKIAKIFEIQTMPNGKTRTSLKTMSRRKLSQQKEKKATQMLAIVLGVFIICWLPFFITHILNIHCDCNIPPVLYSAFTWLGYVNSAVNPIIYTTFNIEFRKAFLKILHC
Chain of D(1A) dopamine receptor (P21728 whole entry): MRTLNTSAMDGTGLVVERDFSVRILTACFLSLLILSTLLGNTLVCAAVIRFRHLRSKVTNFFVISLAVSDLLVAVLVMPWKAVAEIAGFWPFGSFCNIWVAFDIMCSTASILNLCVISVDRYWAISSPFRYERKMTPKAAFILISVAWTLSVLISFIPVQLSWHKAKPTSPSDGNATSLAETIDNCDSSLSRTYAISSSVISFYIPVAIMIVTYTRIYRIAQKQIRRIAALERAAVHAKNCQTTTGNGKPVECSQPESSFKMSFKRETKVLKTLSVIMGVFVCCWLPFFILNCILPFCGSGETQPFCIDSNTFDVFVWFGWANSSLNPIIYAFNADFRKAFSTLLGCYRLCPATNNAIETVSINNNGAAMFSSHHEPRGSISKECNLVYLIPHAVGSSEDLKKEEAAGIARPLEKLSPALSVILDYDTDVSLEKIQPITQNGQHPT
Chain of D(1B) dopamine receptor (P21918 whole entry): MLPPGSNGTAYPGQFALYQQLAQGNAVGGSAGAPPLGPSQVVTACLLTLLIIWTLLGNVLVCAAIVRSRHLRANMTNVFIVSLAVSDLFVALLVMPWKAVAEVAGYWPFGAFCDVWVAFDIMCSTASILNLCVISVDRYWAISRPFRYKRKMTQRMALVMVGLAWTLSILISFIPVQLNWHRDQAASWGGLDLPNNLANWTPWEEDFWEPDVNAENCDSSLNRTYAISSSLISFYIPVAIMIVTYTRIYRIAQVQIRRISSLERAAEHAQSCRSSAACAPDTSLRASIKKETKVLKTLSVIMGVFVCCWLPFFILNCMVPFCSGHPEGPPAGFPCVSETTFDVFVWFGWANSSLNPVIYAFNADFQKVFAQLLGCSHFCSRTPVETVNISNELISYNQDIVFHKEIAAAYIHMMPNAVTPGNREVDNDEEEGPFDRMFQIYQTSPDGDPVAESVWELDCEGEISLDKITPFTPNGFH
Chain of D(3) dopamine receptor (P35462 whole entry): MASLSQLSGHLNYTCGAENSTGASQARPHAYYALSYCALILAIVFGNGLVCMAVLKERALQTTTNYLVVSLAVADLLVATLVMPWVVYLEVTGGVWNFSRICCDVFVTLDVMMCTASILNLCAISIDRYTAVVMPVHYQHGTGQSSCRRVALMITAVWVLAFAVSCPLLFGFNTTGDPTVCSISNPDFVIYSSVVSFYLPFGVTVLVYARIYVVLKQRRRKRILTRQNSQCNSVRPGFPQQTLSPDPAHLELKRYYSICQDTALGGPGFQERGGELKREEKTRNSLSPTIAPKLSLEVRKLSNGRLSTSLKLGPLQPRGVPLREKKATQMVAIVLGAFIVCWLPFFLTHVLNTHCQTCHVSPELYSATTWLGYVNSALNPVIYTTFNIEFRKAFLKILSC

SMILES	Ki (D(2) dopamine receptor) [nM]	Ki (D(4) dopamine receptor [1]) [nM]	also measured
CCCn1ncc2c1-c1c(C)sc(C)c1CCC2	885	97	–
Cc1sc(C)c2c1CCCc1c-2n[nH]c1CN(C)C	–	2560	–
Cc1sc(C)c2c1CCCc1ncn(C)c1-2	> 10000	1290	–
Cc1sc(C)c2c1CCCc1cn(C)nc1-2	641	228	–
Cc1sc(C)c2c1CCc1cnn(C)c1-2	462	26	–
CC(C)n1ncc2c1-c1c(Cl)sc(Cl)c1CCC2	> 10000	1560	–
c1ccc2c(c1)CCCc1c[nH]nc1-2	> 10000	> 10000	–
Cc1sc(C)c2c1CCc1cn(C)nc1-2	–	2870	–
Cc1sc(C)c2c1CC(C)(C)Cc1c[nH]nc1-2	> 10000	1300	–
Cc1oc(C)c2c1CCCc1cnn(C)c1-2	28	11	–
Cc1oc(C)c2c1CCCc1c[nH]nc1-2	–	275	–
Clc1sc(Cl)c2c1CCCc1c[nH]nc1-2	534	169	–
Cc1ccc(C)c2c1CCCc1c[nH]nc1-2	> 10000	425	–
Cc1sc(C)c2c1CCCc1c[nH]nc1-2	2070	12	Ki [2]: > 1000 nM; Ki [3]: 2087 nM; half-life [4]: 6 min; logP [5]: 2.48; Ki [6]: > 10000 nM; Ki [7]: > 7800 nM; Ki (D(1A) dopamine receptor): > 10000 nM; Ki (D(3) dopamine receptor): > 10000 nM; Ki (D(1B) dopamine receptor): > 10000 nM; EC50 (D(4) dopamine receptor [8]): 9 nM
Cc1sc(C)c2c1CCCc1nncn1-2	> 10000	4320	–
Cn1ncc2c1-c1c(Cl)sc(Cl)c1CCC2	416	14	–
CCCn1ncc2c1-c1c(Cl)sc(Cl)c1CCC2	> 10000	3550	–
Clc1sc(Cl)c2c1CCCc1cnn(Cc3ccccc3)c1-2	> 10000	> 10000	–
CCn1ncc2c1-c1c(C)sc(C)c1CCC2	402	22	–
Cc1sc(C)c2c1CCCc1cnn(-c3ccccc3)c1-2	> 10000	1580	–
Cc1sc(C)c2c1CCc1c[nH]nc1-2	–	170	–
Cc1sc(C)c2c1SCc1cnn(C)c1-2	111	3	half-life [4]: < 1 min; pKa [9]: 3.06
Cc1sc(C)c2c1CCCc1cnn(C)c1-2	176	2	–
Cc1sc(C)c2c1CCCc1cnn(C(C)C)c1-2	555	138	–
Cc1sc(C)c2c1CN(C)Cc1c[nH]nc1-2	–	> 10000	–
Cc1sc(C)c2c1CCCc1nnc(C)n1-2	> 10000	462	–
Cn1cc2c(n1)-c1ccccc1CCC2	> 10000	507	–
Cn1ncc2c1-c1ccccc1CCC2	> 10000	> 10000	–
Cc1sc(C)c2c1CCCc1nccn1-2	> 10000	301	–
CCn1ncc2c1-c1c(Cl)sc(Cl)c1CCC2	489	168	–
